ChEMBL document CHEMBL4312023, “Design of novel monoamine oxidase-B inhibitors based on piperine scaffold: Structure-activity-toxicity, drug-likeness and efflux transport studies” (Eur J Med Chem, 2020)

Legend:
[1] = target: T1, Amine oxidase [flavin-containing] A (Homo sapiens, UniProt P21397); settings: BTI-TN-5B1-4, human, read-out: INH
T1 sequence (P21397 whole entry): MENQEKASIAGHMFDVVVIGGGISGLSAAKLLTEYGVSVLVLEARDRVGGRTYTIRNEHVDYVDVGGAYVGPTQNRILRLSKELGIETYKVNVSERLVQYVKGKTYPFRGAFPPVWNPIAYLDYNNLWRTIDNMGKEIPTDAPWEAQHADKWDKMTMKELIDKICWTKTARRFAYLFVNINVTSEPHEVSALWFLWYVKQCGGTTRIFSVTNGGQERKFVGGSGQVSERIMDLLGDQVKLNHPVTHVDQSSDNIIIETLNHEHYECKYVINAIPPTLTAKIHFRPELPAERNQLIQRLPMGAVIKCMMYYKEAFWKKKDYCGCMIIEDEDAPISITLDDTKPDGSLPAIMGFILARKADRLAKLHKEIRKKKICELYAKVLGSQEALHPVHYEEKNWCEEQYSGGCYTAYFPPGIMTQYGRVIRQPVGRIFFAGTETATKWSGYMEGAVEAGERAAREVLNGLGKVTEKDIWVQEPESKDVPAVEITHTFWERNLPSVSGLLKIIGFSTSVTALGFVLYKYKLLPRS
Description: Inhibition of human microsomal MAO-A expressed in baculovirus infected BTI-TN-5B1-4 cells assessed as reduction in 4-hydroxyquinoline formation at 10 uM using kynuramine as substrate preincubated with substrate for 10 mins followed by enzyme inhibition by spectrophotometric analysis

[2] = species on record: Homo sapiens; assay: Selectivity index, ratio of IC50 for human microsomal MAO-A expressed in baculovirus infected […] cells to IC50 for human microsomal MAO-B expressed in baculovirus infected […] cells using kynuramine as substrate
[3] = target: T2, Amine oxidase [flavin-containing] B (Homo sapiens, UniProt P27338); assay: biochemical; type: cell-based, BTI-TN-5B1-4
T2 sequence (P27338 whole entry): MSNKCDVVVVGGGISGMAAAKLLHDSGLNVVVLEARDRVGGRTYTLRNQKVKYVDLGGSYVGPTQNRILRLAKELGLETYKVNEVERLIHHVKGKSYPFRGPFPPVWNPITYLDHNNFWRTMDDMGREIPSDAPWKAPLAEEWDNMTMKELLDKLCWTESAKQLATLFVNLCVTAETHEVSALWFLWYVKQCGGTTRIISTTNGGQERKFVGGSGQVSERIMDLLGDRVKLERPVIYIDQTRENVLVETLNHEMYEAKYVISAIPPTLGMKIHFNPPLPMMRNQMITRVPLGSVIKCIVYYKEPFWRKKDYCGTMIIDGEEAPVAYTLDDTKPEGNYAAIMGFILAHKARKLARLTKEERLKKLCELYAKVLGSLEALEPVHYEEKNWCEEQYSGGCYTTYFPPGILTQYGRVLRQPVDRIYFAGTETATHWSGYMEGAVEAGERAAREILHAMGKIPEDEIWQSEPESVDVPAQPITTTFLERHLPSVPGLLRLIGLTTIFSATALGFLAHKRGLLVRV
Description: Inhibition of human microsomal MAO-B expressed in baculovirus infected BTI-TN-5B1-4 cells assessed as reduction in 4-hydroxyquinoline formation using kynuramine as substrate preincubated with substrate for 10 mins followed by enzyme addition by spectrophotometric analysis

[4] = Chromatographic hydrophobicity index of compound at 250 uM at pH 7.4 by HPLC analysis; type: ADME; settings: pH 7.4, 250 µM
[5] = Retention time of compound at pH 7.4 by LC-UV analysis; type: physicochemical; settings: buffer
[6] = tested on: SH-SY5Y; assay: (§1) Cytotoxicity against human SH-SY5Y cells assessed as lysosomal activity by measuring neutral red uptake at 10 to 50 uM incubated for 24 hrs followed by incubation with neutral red solution for 2 hrs by microplate reader analysis (reference value: >85%); type: cell-based; settings: sh-sy5y, 24 h, 50 µM
[7] = target: T3, ATP-dependent translocase ABCB1 (Homo sapiens, UniProt P08183); assay: (§2) Induction of P-gp in human Caco2 cells assessed as decrease in Rho123 intracellular accumulation by measuring increase in ratio between fluorescence intensity of Zos-inhibited Rho123 accumulation and fluorescence intensity of non-inhibited Rho123 accumulation at 10 uM using Rho123 as substrate preincubated for 30 mins in presence of 5 uM P-gp inhibitor, Zos followed by incubation with Rhodamine 123 for 90 mins by fluorescence spectroscopy analysis; type: cell-based; settings: 1.5 h
[8] = target: T3, ATP-dependent translocase ABCB1; assay: as §2, with “Inhibition” for “Induction”, “efflux” for “intracellular accumulation”, “decrease” for “increase”; type: cell-based; settings: 1.5 h
[9] = Chromatographic hydrophobicity index, log D of compound at 250 uM at pH 7.4 by HPLC analysis; type: physicochemical; settings: buffer
[10] = tested on: SH-SY5Y; assay: (§3) Cytotoxicity against human SH-SY5Y cells assessed as cellular metabolic activity by measuring resazurin reduction at 10 to 50 uM incubated for 24 hrs followed by incubation with resazurin for 2 hrs by fluorescence based assay (reference value: >85%); type: ADME, cell-based; settings: sh-sy5y, 24 h, 50 µM
[11] = target: T2, Amine oxidase [flavin-containing] B; assay: Inhibition of human microsomal MAO-B expressed in baculovirus infected BTI-TN-5B1-4 cells assessed as reduction in 4-hydroxyquinoline formation at 10 uM using kynuramine as substrate preincubated with substrate for 10 mins followed by enzyme addition by spectrophotometric analysis; settings: BTI-TN-5B1-4, human
[12] = as §1; type: cell-based; settings: SH-SY5Y cells, read-out: Activity
[13] = target: T2, Amine oxidase [flavin-containing] B; assay: Reversible inhibition of human microsomal MAO-B expressed in baculovirus infected BTI-TN-5B1-4 cells assessed as 4-hydroxyquinoline formation using kynuramine as substrate incubated up to 140 mins by spectrophotometric analysis; settings: bti-tn-5b1-4, 140 min
[14] = target: T2, Amine oxidase [flavin-containing] B; assay: Competitive inhibition of human microsomal MAO-B expressed in baculovirus infected BTI-TN-5B1-4 cells assessed as increase in substrate Km using kynuramine as substrate preincubated with substrate at varying concentrations for 10 mins followed by enzyme addition by Lineweaver-Burk plot analysis
[15] = target: T2, Amine oxidase [flavin-containing] B; assay: Competitive inhibition of human microsomal MAO-B expressed in baculovirus infected BTI-TN-5B1-4 cells assessed as constant Vmax using kynuramine as substrate preincubated with substrate at varying concentrations for 10 mins followed by enzyme addition by Lineweaver-Burk plot analysis
[16] = target: T2, Amine oxidase [flavin-containing] B; assay: Competitive inhibition of human microsomal MAO-B expressed in baculovirus infected BTI-TN-5B1-4 cells assessed as inhibition constant using kynuramine as substrate preincubated with substrate at varying concentrations for 10 mins followed by enzyme addition by Lineweaver-Burk plot analysis
[17] = Cytotoxicity against human Caco2 cells assessed as lysosomal activity by measuring neutral red uptake at 10 to 50 uM incubated for 24 hrs followed by incubation with neutral red solution for 1 hr by microplate reader analysis (reference value: >85%); type: cell-based; settings: Caco-2 cells, read-out: Activity
[18] = Stability of compound in DMSO-d6 and D2O (7:3) measured after 30 mins to 1 hr in presence of glutathione by thiol trapping assay based 1H-NMR analysis; type: physicochemical
[19] = Cytotoxicity against human Caco2 cells assessed as cellular metabolic activity by measuring resazurin reduction at 10 to 50 uM incubated for 24 hrs followed by incubation with resazurin for 1 hr by fluorescence based assay (reference value: >85%); type: ADME, cell-based; settings: Caco-2 cells, read-out: Activity
[20] = as §3; type: ADME, cell-based; settings: SH-SY5Y cells, read-out: Activity

T3 sequence (P08183 whole entry): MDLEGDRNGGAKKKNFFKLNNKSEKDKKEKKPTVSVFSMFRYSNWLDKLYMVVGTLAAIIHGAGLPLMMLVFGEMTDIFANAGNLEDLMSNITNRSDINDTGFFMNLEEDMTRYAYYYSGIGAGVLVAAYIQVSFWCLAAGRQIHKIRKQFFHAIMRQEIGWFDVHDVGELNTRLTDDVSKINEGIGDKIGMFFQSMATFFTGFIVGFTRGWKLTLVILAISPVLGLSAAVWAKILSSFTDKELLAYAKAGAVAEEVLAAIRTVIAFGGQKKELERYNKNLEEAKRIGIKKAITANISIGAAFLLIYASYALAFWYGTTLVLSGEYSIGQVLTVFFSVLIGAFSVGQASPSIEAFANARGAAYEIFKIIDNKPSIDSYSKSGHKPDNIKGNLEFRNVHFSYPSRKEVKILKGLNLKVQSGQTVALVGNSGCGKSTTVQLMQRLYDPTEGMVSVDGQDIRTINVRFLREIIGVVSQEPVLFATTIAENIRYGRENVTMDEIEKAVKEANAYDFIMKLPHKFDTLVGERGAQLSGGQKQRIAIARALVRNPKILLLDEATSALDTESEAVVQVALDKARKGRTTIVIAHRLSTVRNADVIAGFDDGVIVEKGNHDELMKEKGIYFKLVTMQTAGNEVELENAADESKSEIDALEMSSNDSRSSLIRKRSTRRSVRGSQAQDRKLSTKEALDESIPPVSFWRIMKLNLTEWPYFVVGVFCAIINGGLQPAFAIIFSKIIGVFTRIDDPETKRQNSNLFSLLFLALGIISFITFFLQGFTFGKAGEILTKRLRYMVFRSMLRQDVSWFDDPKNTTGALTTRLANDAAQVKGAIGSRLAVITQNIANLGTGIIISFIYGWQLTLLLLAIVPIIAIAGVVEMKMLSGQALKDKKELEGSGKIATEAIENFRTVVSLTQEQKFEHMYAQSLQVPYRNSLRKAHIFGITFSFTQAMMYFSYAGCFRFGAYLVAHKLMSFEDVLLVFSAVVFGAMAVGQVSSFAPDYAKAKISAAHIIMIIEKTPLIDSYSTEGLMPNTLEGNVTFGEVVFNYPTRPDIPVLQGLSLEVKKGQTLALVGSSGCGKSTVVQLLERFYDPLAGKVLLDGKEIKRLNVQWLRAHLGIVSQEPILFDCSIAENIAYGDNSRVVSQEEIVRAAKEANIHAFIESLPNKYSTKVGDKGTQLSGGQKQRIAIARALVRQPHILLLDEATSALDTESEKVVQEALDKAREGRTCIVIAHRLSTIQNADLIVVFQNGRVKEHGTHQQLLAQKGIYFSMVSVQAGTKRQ

SMILES | inhibition at 10 µM [1] | Ratio IC50 [2] | IC50 [3] | CHI [4] | Retention_time [5] | also measured
N#C/C(=C\C=C\c1ccc2c(c1)OCO2)C(=O)NCc1ccccc1 | < 50% | > 21 | 471 nM | – | – | –
COc1cc2c(c(OC)c1OC)-c1ccc(OC)c(=O)cc1[C@@H](NC(C)=O)CC2 [COLCHICINE] | – | – | – | 44.32 | 8.35 min | –
O=C(/C=C/C=C/c1ccc2c(c1)OCO2)OCCc1ccccc1 | < 50% | > 22 | 448 nM | – | – | –
CCCC(=O)c1ccccc1 [BUTYROPHENONE] | – | – | – | 88.49 | 11.32 min | –
O=C(/C=C/C=C/c1ccc2c(c1)OCO2)N1CCCCC1 [PIPERINE] | < 50% | 10 | 1050 nM | 73.45 | 10.61 min | Activity [6]: Non-Toxic; Activity [7]: Not Active; inhibition (INH) [8]: Not Active; chromatographic logD at 250 µM [9]: 2.39; Activity [10]: Non-Toxic
Cn1c(=O)c2c(ncn2C)n(C)c1=O [CAFFEINE] | – | – | – | 24.12 | 7.56 min | –
Cn1c(=O)c2[nH]cnc2n(C)c1=O.O [THEOPHYLLINE] | – | – | – | 18.19 | 7.31 min | –
N#C/C(=C\C=C\c1ccc2c(c1)OCO2)C(=O)Nc1ccccc1 | < 50% | – | – | – | – | inhibition at 10 µM [11]: < 50%
N#C/C(=C\C=C\c1ccc2c(c1)OCO2)C(=O)Oc1ccccc1 | < 50% | > 47 | 215 nM | – | – | –
N#C/C(=C\C=C\c1ccc2c(c1)OCO2)C(=O)OCc1ccccc1 | < 50% | > 211 | 47.4 nM | 96.73 | 12.11 min | viability at 24 h [12]: > 85%; inhibition (INH) [13]: Active; inhibition (INH) [14]: Active; inhibition (INH) [15]: Active; Ki [16]: 44.1 nM; viability at 24 h [17]: > 85%; Stability [18]: Stable; inhibition (INH) [8]: Active; viability at 24 h, up to 50 µM [19]: > 85%; chromatographic logD at 250 µM [9]: 3.61; viability at 24 h, up to 50 µM [20]: > 85%
N#C/C(=C\C=C\c1ccc2c(c1)OCO2)C(=O)O | < 50% | – | – | – | – | inhibition at 10 µM [11]: < 50%
CCC(=O)c1ccccc1 [PROPIOPHENONE] | – | – | – | 78.41 | 10.63 min | –
O=C(/C=C/C=C/c1ccc2c(c1)OCO2)NCc1ccccc1 | < 50% | – | – | – | – | inhibition at 10 µM [11]: < 50%
c1ccc2[nH]cnc2c1 [BENZIMIDAZOLE] | – | – | – | 30.71 | 8 min | –
